{
  "source": "patent EP1870093A1",
  "about": "“Pharmaceutical combination comprising adenosine A1 receptor antagonists and radiocontrast media” (Solvay Pharmaceuticals GmbH, priority 2006, dated 2007)",
  "origin": "cited, not measured here",
  "test_system": "radiocontrast media induced nephropathy",
  "conditions": "Shammas 2001; Welch 2002; Huber 2002",
  "data": [
    {"smiles": "Cn1c(=O)c2[nH]cnc2n(C)c1=O", "note": "[Aminophylline, aminophylline]", "values": [
      {"measurement": "protection against radiocontrast media induced nephropathy", "result": "does not appear to add a protective role"}
    ]},
    {"smiles": "Cn1c(=O)c2[nH]cnc2n(C)c1=O", "note": "[theophylline]", "values": [
      {"measurement": "protection against radiocontrast media induced nephropathy", "result": "effective in preventing radiocontrast media induced nephropathy"}
    ]}
  ]
}
